According to US20190185417A1, “NOVEL ANTIBIOTICS” (priority 2016, published 2019):

Experiments:
Format in all cases: cell-based
[1] = test system: Haemophilus influenzae (ATCC 49247); assay: MIC by broth microdilution; conditions: Table 2, Example 2
Protocol: (§1) The antibacterial potency of the test article(s) was measured using the in vitro broth microdilution assay under assay conditions described by the Clinical and Laboratory Standards Institute. […] The test substance was dissolved in 100% DMSO (unless stated below), suspended completely by sonication or vortexing, diluted by 2-fold serial titrations in the same vehicle, for a total of 11 test concentrations. A 4 μL aliquot of each dilution was added to 196 μL of broth medium seeded with the organism suspension in wells of a 96 well plate (bacterial count: 2−8×10^5 colony forming units/mL final). The final volume was 200 μL in each well and the final DMSO concentration was 2 percent. Following incubation, the test plates were visually examined and wells were scored for growth or complete growth inhibition to define the minimum inhibitory concentration. Each test substance was evaluated in duplicate and the results below are the duplicate test values. Vehicle-control and an active reference agent were used as blank and positive controls, respectively.

[2] = test system: Pseudomonas aeruginosa (ATCC 27853); assay: MIC by broth microdilution
Protocol: as §1, with “DMSO,” for “DMSO (unless stated below),”, “incubation for 1 day at 36° C.,” for “incubation,”, “were reported as” for “below are”, “respectively. Microorganisms tested were Acinetobacter baumannii (ATCC 17978), Enterococcus faecalis (ATCC 29212), Enterococcus faecium VanA (ATCC 700221), Escherichia coli (ATCC 25922), Escherichia coli efflux defective DEL-tolC (JW5503), Heamophilus influenzae (ATCC 49247), Klebsiella pneumoniae (ATCC 43816), Pseudomonas aeruginosa (ATCC 27853), Pseudomonas aeruginosa MDR (NTUH-974), Staphylococcus aureus (ATCC 29213), Staphylococcus aureus MRSA (ATCC 33591) and Streptococcous pneumoniae (ATCC 46919). H. influenzae was grown in Haemophilus Test Medium and S. pneumoniae was grown in cation adjusted Muller-Hinton Broth II with 5% lysed horse blood. All other microorganisms were grown in cation adjusted Muller-Hinton Broth II.” for “respectively.”
as §1

[3] = test system: Escherichia coli (ATCC 25922); assay: MIC by broth microdilution
Protocol: as §1, with “DMSO,” for “DMSO (unless stated below),”, “incubation for 1 day at 36° C.,” for “incubation,”, “were reported as” for “below are”, “respectively. Microorganisms tested were Acinetobacter baumannii (ATCC 17978), Enterococcus faecalis (ATCC 29212), Enterococcus faecium VanA (ATCC 700221), Escherichia coli (ATCC 25922), Escherichia coli efflux defective DEL-tolC (JW5503), Heamophilus influenzae (ATCC 49247), Klebsiella pneumoniae (ATCC 43816), Pseudomonas aeruginosa (ATCC 27853), Pseudomonas aeruginosa MDR (NTUH-974), Staphylococcus aureus (ATCC 29213), Staphylococcus aureus MRSA (ATCC 33591) and Streptococcous pneumoniae (ATCC 46919). H. influenzae was grown in Haemophilus Test Medium and S. pneumoniae was grown in cation adjusted Muller-Hinton Broth II with 5% lysed horse blood. All other microorganisms were grown in cation adjusted Muller-Hinton Broth II.” for “respectively.”
as §1

[4] = test system: Klebsiella pneumoniae (ATCC 43816); assay: MIC by broth microdilution
Protocol: as §1, with “DMSO,” for “DMSO (unless stated below),”, “incubation for 1 day at 36° C.,” for “incubation,”, “were reported as” for “below are”, “respectively. Microorganisms tested were Acinetobacter baumannii (ATCC 17978), Enterococcus faecalis (ATCC 29212), Enterococcus faecium VanA (ATCC 700221), Escherichia coli (ATCC 25922), Escherichia coli efflux defective DEL-tolC (JW5503), Heamophilus influenzae (ATCC 49247), Klebsiella pneumoniae (ATCC 43816), Pseudomonas aeruginosa (ATCC 27853), Pseudomonas aeruginosa MDR (NTUH-974), Staphylococcus aureus (ATCC 29213), Staphylococcus aureus MRSA (ATCC 33591) and Streptococcous pneumoniae (ATCC 46919). H. influenzae was grown in Haemophilus Test Medium and S. pneumoniae was grown in cation adjusted Muller-Hinton Broth II with 5% lysed horse blood. All other microorganisms were grown in cation adjusted Muller-Hinton Broth II.” for “respectively.”
as §1

[5] = test system: Acinetobacter baumannii (ATCC 17978); assay: MIC by broth microdilution
Protocol: as §1, with “DMSO,” for “DMSO (unless stated below),”, “incubation for 1 day at 36° C.,” for “incubation,”, “were reported as” for “below are”, “respectively. Microorganisms tested were Acinetobacter baumannii (ATCC 17978), Enterococcus faecalis (ATCC 29212), Enterococcus faecium VanA (ATCC 700221), Escherichia coli (ATCC 25922), Escherichia coli efflux defective DEL-tolC (JW5503), Heamophilus influenzae (ATCC 49247), Klebsiella pneumoniae (ATCC 43816), Pseudomonas aeruginosa (ATCC 27853), Pseudomonas aeruginosa MDR (NTUH-974), Staphylococcus aureus (ATCC 29213), Staphylococcus aureus MRSA (ATCC 33591) and Streptococcous pneumoniae (ATCC 46919). H. influenzae was grown in Haemophilus Test Medium and S. pneumoniae was grown in cation adjusted Muller-Hinton Broth II with 5% lysed horse blood. All other microorganisms were grown in cation adjusted Muller-Hinton Broth II.” for “respectively.”
as §1

[6] = test system: Pseudomonas aeruginosa, MDR (NTUH-974); assay: MIC by broth microdilution; conditions: Table 2, Example 2
Protocol: as §1, with “DMSO,” for “DMSO (unless stated below),”, “incubation for 1 day at 36° C.,” for “incubation,”, “were reported as” for “below are”, “respectively. Microorganisms tested were Acinetobacter baumannii (ATCC 17978), Enterococcus faecalis (ATCC 29212), Enterococcus faecium VanA (ATCC 700221), Escherichia coli (ATCC 25922), Escherichia coli efflux defective DEL-tolC (JW5503), Heamophilus influenzae (ATCC 49247), Klebsiella pneumoniae (ATCC 43816), Pseudomonas aeruginosa (ATCC 27853), Pseudomonas aeruginosa MDR (NTUH-974), Staphylococcus aureus (ATCC 29213), Staphylococcus aureus MRSA (ATCC 33591) and Streptococcous pneumoniae (ATCC 46919). H. influenzae was grown in Haemophilus Test Medium and S. pneumoniae was grown in cation adjusted Muller-Hinton Broth II with 5% lysed horse blood. All other microorganisms were grown in cation adjusted Muller-Hinton Broth II.” for “respectively.”
as §1

[7] = test system: Escherichia coli, efflux defective DEL-tolC (JW5503); assay: MIC by broth microdilution
Protocol: as §1, with “DMSO,” for “DMSO (unless stated below),”, “incubation for 1 day at 36° C.,” for “incubation,”, “were reported as” for “below are”, “respectively. Microorganisms tested were Acinetobacter baumannii (ATCC 17978), Enterococcus faecalis (ATCC 29212), Enterococcus faecium VanA (ATCC 700221), Escherichia coli (ATCC 25922), Escherichia coli efflux defective DEL-tolC (JW5503), Heamophilus influenzae (ATCC 49247), Klebsiella pneumoniae (ATCC 43816), Pseudomonas aeruginosa (ATCC 27853), Pseudomonas aeruginosa MDR (NTUH-974), Staphylococcus aureus (ATCC 29213), Staphylococcus aureus MRSA (ATCC 33591) and Streptococcous pneumoniae (ATCC 46919). H. influenzae was grown in Haemophilus Test Medium and S. pneumoniae was grown in cation adjusted Muller-Hinton Broth II with 5% lysed horse blood. All other microorganisms were grown in cation adjusted Muller-Hinton Broth II.” for “respectively.”
as §1

[8] = test system: Gram-negative bacteria; assay: MIC by broth microdilution, overall statement in words; conditions: Example 1, statement in words
Protocol: as §1, with “DMSO,” for “DMSO (unless stated below),”, “incubation for 1 day at 36° C.,” for “incubation,”, “were reported as” for “below are”, “respectively. Microorganisms tested were Acinetobacter baumannii (ATCC 17978), Enterococcus faecalis (ATCC 29212), Enterococcus faecium VanA (ATCC 700221), Escherichia coli (ATCC 25922), Escherichia coli efflux defective DEL-tolC (JW5503), Heamophilus influenzae (ATCC 49247), Klebsiella pneumoniae (ATCC 43816), Pseudomonas aeruginosa (ATCC 27853), Pseudomonas aeruginosa MDR (NTUH-974), Staphylococcus aureus (ATCC 29213), Staphylococcus aureus MRSA (ATCC 33591) and Streptococcous pneumoniae (ATCC 46919). H. influenzae was grown in Haemophilus Test Medium and S. pneumoniae was grown in cation adjusted Muller-Hinton Broth II with 5% lysed horse blood. All other microorganisms were grown in cation adjusted Muller-Hinton Broth II.” for “respectively.”
as §1

[9] = test system: Enterococcus faecalis (ATCC29212); assay: MIC by broth microdilution; conditions: Table 1, Example 1
Protocol: as §1, with “DMSO,” for “DMSO (unless stated below),”, “incubation for 1 day at 36° C.,” for “incubation,”, “were reported as” for “below are”, “respectively. Microorganisms tested were Acinetobacter baumannii (ATCC 17978), Enterococcus faecalis (ATCC 29212), Enterococcus faecium VanA (ATCC 700221), Escherichia coli (ATCC 25922), Escherichia coli efflux defective DEL-tolC (JW5503), Heamophilus influenzae (ATCC 49247), Klebsiella pneumoniae (ATCC 43816), Pseudomonas aeruginosa (ATCC 27853), Pseudomonas aeruginosa MDR (NTUH-974), Staphylococcus aureus (ATCC 29213), Staphylococcus aureus MRSA (ATCC 33591) and Streptococcous pneumoniae (ATCC 46919). H. influenzae was grown in Haemophilus Test Medium and S. pneumoniae was grown in cation adjusted Muller-Hinton Broth II with 5% lysed horse blood. All other microorganisms were grown in cation adjusted Muller-Hinton Broth II.” for “respectively.”

[10] = test system: Enterococcus faecium, VanA (ATCC 700221); assay: MIC by broth microdilution; conditions: Table 1, Example 1
Protocol: as §1, with “DMSO,” for “DMSO (unless stated below),”, “incubation for 1 day at 36° C.,” for “incubation,”, “were reported as” for “below are”, “respectively. Microorganisms tested were Acinetobacter baumannii (ATCC 17978), Enterococcus faecalis (ATCC 29212), Enterococcus faecium VanA (ATCC 700221), Escherichia coli (ATCC 25922), Escherichia coli efflux defective DEL-tolC (JW5503), Heamophilus influenzae (ATCC 49247), Klebsiella pneumoniae (ATCC 43816), Pseudomonas aeruginosa (ATCC 27853), Pseudomonas aeruginosa MDR (NTUH-974), Staphylococcus aureus (ATCC 29213), Staphylococcus aureus MRSA (ATCC 33591) and Streptococcous pneumoniae (ATCC 46919). H. influenzae was grown in Haemophilus Test Medium and S. pneumoniae was grown in cation adjusted Muller-Hinton Broth II with 5% lysed horse blood. All other microorganisms were grown in cation adjusted Muller-Hinton Broth II.” for “respectively.”

[11] = test system: Staphylococcus aureus, MRSA (ATCC 33591); assay: MIC by broth microdilution; conditions: Table 1, Example 1
Protocol: as §1, with “DMSO,” for “DMSO (unless stated below),”, “incubation for 1 day at 36° C.,” for “incubation,”, “were reported as” for “below are”, “respectively. Microorganisms tested were Acinetobacter baumannii (ATCC 17978), Enterococcus faecalis (ATCC 29212), Enterococcus faecium VanA (ATCC 700221), Escherichia coli (ATCC 25922), Escherichia coli efflux defective DEL-tolC (JW5503), Heamophilus influenzae (ATCC 49247), Klebsiella pneumoniae (ATCC 43816), Pseudomonas aeruginosa (ATCC 27853), Pseudomonas aeruginosa MDR (NTUH-974), Staphylococcus aureus (ATCC 29213), Staphylococcus aureus MRSA (ATCC 33591) and Streptococcous pneumoniae (ATCC 46919). H. influenzae was grown in Haemophilus Test Medium and S. pneumoniae was grown in cation adjusted Muller-Hinton Broth II with 5% lysed horse blood. All other microorganisms were grown in cation adjusted Muller-Hinton Broth II.” for “respectively.”

[12] = test system: Staphylococcus aureus (ATCC 29213); assay: MIC by broth microdilution; conditions: Table 1, Example 1
Protocol: as §1, with “DMSO,” for “DMSO (unless stated below),”, “incubation for 1 day at 36° C.,” for “incubation,”, “were reported as” for “below are”, “respectively. Microorganisms tested were Acinetobacter baumannii (ATCC 17978), Enterococcus faecalis (ATCC 29212), Enterococcus faecium VanA (ATCC 700221), Escherichia coli (ATCC 25922), Escherichia coli efflux defective DEL-tolC (JW5503), Heamophilus influenzae (ATCC 49247), Klebsiella pneumoniae (ATCC 43816), Pseudomonas aeruginosa (ATCC 27853), Pseudomonas aeruginosa MDR (NTUH-974), Staphylococcus aureus (ATCC 29213), Staphylococcus aureus MRSA (ATCC 33591) and Streptococcous pneumoniae (ATCC 46919). H. influenzae was grown in Haemophilus Test Medium and S. pneumoniae was grown in cation adjusted Muller-Hinton Broth II with 5% lysed horse blood. All other microorganisms were grown in cation adjusted Muller-Hinton Broth II.” for “respectively.”

| Compound | MIC [1] | MIC ([2]; Table 2, Example 2) | MIC ([3]; Table 2, Example 2) | MIC ([4]; Table 2, Example 2) | MIC ([5]; Table 2, Example 2) | MIC [6] | MIC ([7]; Table 2, Example 2) | activity against Gram-negative bacteria [8] | MIC [9] | MIC [10] | MIC [11] | MIC [12] | MIC ([2]; Table 1, Example 1) | MIC ([3]; Table 1, Example 1) | MIC ([4]; Table 1, Example 1) | MIC ([5]; Table 1, Example 1) | MIC ([7]; Table 1, Example 1) |
| --- | --- | --- | --- | --- | --- | --- | --- | --- | --- | --- | --- | --- | --- | --- | --- | --- | --- |
| N#Cc1ccc(/C=C/c2cc(/C=C/c3ccc(C#N)cc3)cc(/C=C/c3ccc(C#N)cc3)c2)cc1 [Compound 3] | >128 µg/mL | >128 µg/mL | >128 µg/mL | >128 µg/mL | >128 µg/mL | >128 µg/mL | >128 µg/mL |  |  |  |  |  |  |  |  |  |  |
| C[N+](C)(C)Cc1ccc(/C=C/c2cc(/C=C/c3ccc(C[N+](C)(C)C)cc3)cc(/C=C/c3ccc(C[N+](C)(C)C)cc3)c2)cc1.[I-].[I-].[I-] [Compound 1] | >128 µg/mL | >128 µg/mL | 64 µg/mL | 128 µg/mL | 128 µg/mL | >128 µg/mL | 32 µg/mL | active | 128 µg/mL | 128 µg/mL | 16 µg/mL | 32 µg/mL | > 256 µg/mL | 64 µg/mL | 128 µg/mL | 128 µg/mL | 32 µg/mL |
